# In the supplement of paper PMC6723410:
# Test system: GUMC-403
# Assay: viability at highest tested concentration (max response) relative to DMSO (% of DMSO control); higher = less cytotoxic
# Settings: library / dose series: MIPE library, 11-point 1:3 dilution; top concentration 46.1 µM; 48 h
# Method in brief: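 Each figure stands for viability at the highest tested concentration compared with vehicle control. It was measured by CellTiter-Glo luminescence on a ViewLux after 48 h of exposure to 23 nL of pinned compound, with vehicle wells taken as 100% and empty wells as 0%. The cells were patient-derived GUMC-403 papilloma cells grown by conditional reprogramming, plated at 700/well in 5 μL F + Y medium in 1536-well plates.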
row,SMILES,viability
1,CCNC(=O)CCC/C=C\C[C@@H]1[C@@H](/C=C/C(O)CCc2ccccc2)[C@@H](O)C[C@@H]1O (stereo partly drawn),109
2,CN(C)[S+](=O)([O-])c1ccc2c(c1)C(=Cc1cc3c([nH]1)CCCC3)C(=O)N2,122
3,O=C(Nc1ccc(F)c(C(F)(F)F)c1)Nc1nnc(-c2ccncc2)s1,94
4,CC(O)(C#Cc1ccc2c(c1)N(c1nc(N)ncc1Cl)CC2)c1nccs1 (stereo not drawn),86.5
5,C[C@@H]1[C@H](O)[C@@H](C)/C=C/C=C/C=C/C=C/C=C/C=C/C=C/[C@H](O[C@@H]2O[C@H](C)[C@@H](O)[C@H](N)[C@@H]2O)C[C@@H]2O[C@](O)(C[C@@H](O)C[C@@H](O)[C@H](O)CC[C@@H](O)C[C@@H](O)CC(=O)O[C@H]1C)C[C@H](O)[C@H]2C(=O)O,123
6,CC(C)CN(C[C@@H](O)[C@H](Cc1ccccc1)NC(=O)O[C@H]1CCOC1)[S+](=O)([O-])c1ccc(N)cc1,109
7,CCOC(=O)\C1=C\[C@]2(CC)CCCN3CCC4=C([C@H]23)[N]1C5=C4C=CC=C5,83.9
8,c1ccc2[nH]c(-c3cscn3)nc2c1,124
9,CC(NC(C)(C)C)C(=O)c1cccc(Cl)c1 (stereo not drawn),127
10,O=[S+]([O-])(c1cccc2cnccc12)N1CCCNCC1,128
11,CN1CCC(=C2c3ccccc3CCc3sccc32)CC1,115
12,Nc1cccc2c1C(=O)N(C1CCC(=O)NC1=O)C2=O (stereo not drawn),107
13,CCCCNc1cc(C(=O)O)cc([S+](N)(=O)[O-])c1Oc1ccccc1,138
14,C[C@@H](NCc1cc2ccccc2[nH]1)c1cccc2ccccc12,108
15,CO[C@@H]1[C@@H](OC(N)=O)[C@@H](O)[C@H](OC2=CC=C3\C(=C(NC(=O)C4=CC=C([O-])C(=C4)CC=C(C)C)/C(=O)OC3=C2C)O)OC1(C)C,108
16,Cc1ccccc1C(=O)c1ccc(Nc2ccc(Br)cc2N)cc1Cl,103
17,Cc1cccc(Nc2nc(-c3ccncc3)cs2)c1,109
18,O=C(NCCO[N+](=O)[O-])c1cccnc1,108
19,CC1(C)OC2CC3C4CC(F)C/5=C/C(=O)/C=C\C5(C)C4C(O)CC3(C)[C@@]2(O1)C(=O)CO (stereo partly drawn),148
20,FC1=C(C=C(C\C2=N\NC(=O)C3=C2C=CC=C3)C=C1)C(=O)N4CCN(CC4)C(=O)C5CC5,82.6
21,CC(=O)NC(CS)C(=O)O (stereo not drawn),91.1
22,CCC\C1=C\C(=O)NC(=S)N1,110

row,SMILES,viability
1,O=P1(NCCCl)OCCCN1CCCl (stereo not drawn),107
2,C[C@]12CC[C@H]3[C@@H](CCC/4=C/C(=O)CC[C@]34C)[C@@H]1CC[C@@H]2OC(=O)CCC5CCCC5,102
3,CCCc1nc2c(C)cc(-c3nc4ccccc4n3C)cc2n1Cc1ccc(-c2ccccc2C(=O)O)cc1,118
4,CC1(C)SCCN([S+](=O)([O-])c2ccc(OCC#CCO)cc2)[C@H]1C(=O)NO,103
5,COc1cc(N2CCN(C)CC2)ccc1Nc1nc(N)c(C(=O)c2c(Cl)cccc2Cl)s1,120
6,OC(=O)CNC(=O)\C1=C(/O)C2=CC=CC=C2N(CC3=CC=CC=C3)C1=O,108
7,OCCn1cc(-c2ccc3c(c2)CC/C3=N\O)c(-c2ccncc2)n1,94.5
8,C=C1C(=O)OC(CCCCCCCC)C1C(=O)O (stereo not drawn),121
9,Cc1ccc(CN2CCNCC2)cc1NC(=O)CNc1ccc(F)c(F)c1,98.9
10,CNC[C@H](O)c1cccc(O)c1,139
11,O=C(O)C1CCCN(CCC=C(c2ccccc2)c2ccccc2)C1 (stereo not drawn),102
12,CNC(=O)N1\N=C(\C2=CC=C(N)C=C2)C3=CC4=C(OCO4)C=C3CC1C (stereo not drawn),107
13,c1ccc(-c2oc3ncnc(NC[C@@H]4CCCO4)c3c2-c2ccccc2)cc1,100
14,CC(C)(OCc1nn(Cc2ccccc2)c2ccccc12)C(=O)O,113
15,O=C(O)[C@@H](c1ccc(OCc2ccc3ccccc3n2)cc1)C1CCCC1,108
16,OC[C@H]1OC(O)C[C@@H](O)[C@@H]1O (stereo partly drawn),126
17,CCOC(=O)c1cncn1[C@H](C)c1ccccc1,111
18,CC(C)C(=O)Oc1ccc(CO)cc1[C@H](CCN(C(C)C)C(C)C)c1ccccc1,84.7
19,CCOC(=O)c1c(C)n(C)c2ccc(O)cc12,108
20,Cc1cc(O)c2c(c1)C(=O)c1cccc(O)c1C2=O,95.5
21,CCCN[C@H]1CCc2nc(N)sc2C1,142
